Legend:
[1] = in vivo; cited from earlier work
[2] = 1.25 mg/kg body weight over 3 hours; 8 of 73 patients; cited from earlier work
t-PA = t-PA (Homo sapiens, UniProt P00750); settings: cited from earlier work
TNKase® = target: T1, TNKase® (Homo sapiens, UniProt P00750, H332A/K331A/N152Q/R333A/R334A/T138N); test: Cleavage of soluble peptides in plasma plus TNKase®, fluorescence plate reader; type: biochemical
T1 construct: Activase® is a purified glycoprotein of 527 amino acids produced by recombinant DNA technology; purchased Genentech; host or cells: Chinese Hamster Ovary cells
Procedure: (§1) The peptides in Table 3 were re-synthesized in soluble form with nitrotyrosine (Y(NO2) at the N-terminus and Abz at the ε-amino group of the lysine residue (k(Abz)) at the C-terminus. They were then incubated with human plasma alone or plasma plus TNKase® in a 96-well plate and the cleavage reaction was monitored over a period of time with a fluorescent plate reader. Each well contained 90 μM of peptides, 10 μl of plasma in PBS, ph 7.2, with or without 1 μg of TNKase®, in a final volume of 100 μl. Cleavage was measured as fluorescence intensity at different time intervals in the fluorescence plate reader at 360/440 nm excitation and emission range.

[3] = Cleavage of soluble peptides in human plasma alone, fluorescence plate reader; type: in vitro ADME; settings: 90 μM peptide, 10 μl plasma in PBS pH 7.2, without TNKase®
Procedure: as §1

T1 sequence (P00750 36-562 T138N/N152Q/K331A/H332A/R333A/R334A): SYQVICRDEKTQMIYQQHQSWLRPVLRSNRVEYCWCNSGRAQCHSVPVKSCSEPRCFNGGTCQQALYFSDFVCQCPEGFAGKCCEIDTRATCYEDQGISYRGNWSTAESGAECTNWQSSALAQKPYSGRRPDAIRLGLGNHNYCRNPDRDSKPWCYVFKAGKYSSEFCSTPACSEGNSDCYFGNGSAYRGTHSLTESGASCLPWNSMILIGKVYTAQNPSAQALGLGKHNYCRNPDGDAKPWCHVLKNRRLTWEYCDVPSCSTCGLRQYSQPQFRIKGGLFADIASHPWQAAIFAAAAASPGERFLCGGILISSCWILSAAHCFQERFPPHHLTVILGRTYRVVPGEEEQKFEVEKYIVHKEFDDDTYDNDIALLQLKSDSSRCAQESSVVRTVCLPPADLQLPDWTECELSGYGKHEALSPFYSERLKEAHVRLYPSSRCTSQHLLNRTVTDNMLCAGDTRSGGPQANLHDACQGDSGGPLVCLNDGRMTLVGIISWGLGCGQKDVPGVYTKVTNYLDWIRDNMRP
Sequence of t-PA (P00750 36-562, species assumed): as the sequence (P00750 36-562 T138N/N152Q/K331A/H332A/R333A/R334A) above, with N103T, Q117N, A296K, A297H, A298R, A299R counted along it

In the case of “Activase®: purified recombinant t-PA glycoprotein of 527 amino acids, from Genentech”, the initial plasma half-life [1] is given as 5 min, the plasma clearance [1] is given as 380 to 570 mL/min and the “patients with a decrease in fibrinogen to below 100 mg/dl” value [2] is given as 11%.
For GGSG PFGR↓SA LVPEE, the “hydrolysis efficiency by t-PA versus a peptide of similar length from the native cleavage site of plasminogen” value (t-PA) is given as 5000 fold.
In the case of rqYKYkf [compound 20], the “time to complete degradation by TNKase®” value (TNKase®; 10 μg/ml TNKase®) is reported as ≤ 2 h, the “degradation on incubation with TNKase®” value (TNKase®; 10 μg/ml TNKase®, two hours) is reported as “completely degraded” and the “susceptibility to TNKase® cleavage” value (TNKase®; plasma plus TNKase®) is reported as “rapidly degraded”. For the same substance, the “stability / cleavage in human plasma” value [3] was “completely stable”.
